Reference: article PMC9246869, “Allosteric inhibition of PPM1D serine/threonine phosphatase via an altered conformational state” (Nature Communications, 2022)
“And” between values parts separate entries of the source, which are not always exact repeats. Identical values can stand only once.

How the values were obtained:
PPM1D1–420 [1] = molecular target: T1, PPM1D1–420 (Homo sapiens, UniProt O15297); assay: p38 MAPK enzymatic assay (LC/MS, dephosphorylation of T180); assay type: biochemical; conditions: PPM1D1–420; full length p38 MAPK substrate, LC/MS
T1 construct: PPM1D1–420 was PCR-amplified from the synthesized gene with BsaI sites; His(6)-SUMO (N, cleaved yes); made in house; host or cells: E. coli BL21 (DE3)
T1 sequence (O15297 1-420): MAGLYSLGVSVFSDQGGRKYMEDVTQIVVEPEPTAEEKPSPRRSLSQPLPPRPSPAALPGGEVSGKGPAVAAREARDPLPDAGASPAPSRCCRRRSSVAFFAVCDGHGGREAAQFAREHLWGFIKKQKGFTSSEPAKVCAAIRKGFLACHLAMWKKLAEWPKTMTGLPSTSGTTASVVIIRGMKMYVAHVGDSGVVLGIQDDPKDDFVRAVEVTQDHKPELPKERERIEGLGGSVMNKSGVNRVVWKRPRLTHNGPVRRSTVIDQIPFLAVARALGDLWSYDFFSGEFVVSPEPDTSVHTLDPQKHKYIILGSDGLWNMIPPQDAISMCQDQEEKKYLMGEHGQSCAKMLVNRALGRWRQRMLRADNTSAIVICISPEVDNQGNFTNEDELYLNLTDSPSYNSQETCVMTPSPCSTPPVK
Protocol: To generate the double phosphorylated form of p38 MAPK for the LC/MS enzymatic PPM1D assay, 20 µM p38 MAPK was incubated with 100 nM MKK6 in 50 mM HEPES pH 7.4, 10 mM ATP, 40 mM MgCl2, and 100 µM TCEP at RT for 2 h. The reaction mixture was diluted 2-fold with 20 mM HEPES pH 7.4, 300 mM NaCl, 100 µM TCEP, and 1 mM MgCl2 and passed over a Superdex 200 26/600 column equilibrated with 20 mM HEPES pH 7.4, 150 mM NaCl, 100 µM TCEP, and 1 mM MgCl2 to remove excess ATP and MKK6 from the phosphorylated p38 MAPK (p38PP) protein. The protein was concentrated and stored in aliquots for single time usage at −80 °C.
The enzymatic activity of the PPM1D constructs was measured by quantifying the dephosphorylation of the substrate protein p38PP by LC/MS. Assays were run in 384-well plates (Axygen; #P-384-120SQ-C) in a final volume of 80 µL per well. The buffer consisted of 20 mM HEPES, 20 mM NaCl, 20 mM MgCl2 and 0.1 mM TCEP, at a pH of 7.5. The reaction was initiated by addition of the p38PP substrate to a solution containing 10 nM PPM1D to a final concentration of 300 nM for p38PP. The plate was then incubated at room temperature and the reaction quenched after 15 min increments with formic acid to a final concentration of 6% (v/v) up to 120 min. For IC50 measurements, the GSK2830371 compound was pre-incubated with the PPM1D constructs in a 2% DMSO-containing buffer for 10 min prior to the addition of the substrate and the reactions were quenched after 2 h. In both experiments, BSA was added to a final concentration of 0.2 µM during the quench step as a carrier protein and injection control for the LC/MS. The plate was then sealed and spun down at 1500 × g for 1 min prior to LC/MS analysis. Plates were analyzed within the same day of the quench step.
Substrate and product detection was achieved by multiple-reaction monitoring (MRM) using a Waters Acquity UPLC chromatography system connected to an Xevo TQ-XS mass spectrometer (Waters, Milford, MA). Source parameters were set as follows: polarity ES+, capillary 2.0 kV, cone voltage, 50 V; collision energy, 5 V; cone gas flow, 200 L/h; collision gas flow, 0.16 mL/min; source temperature, 150 °C; desolvation temperature, 500 °C; and desolvation gas flow, 800 L/h. Analytes were separated using an Agilent PLRP-S Reversed-Phase column (5 µm; 2.1 × 50 mm, 300 Å Agilent Technologies, Santa Clara, CA) at 60 °C. Sample storage temperature was set to 15 °C. Mobile phases consisted of 0.1% (v/v) formic acid (Millipore EMSURE) in LC/MS grade water (JTBaker) and 0.1% v/v formic acid in acetonitrile (Honeywell). Initial column conditions were set to […]. Proteins were eluted using a 1.5 min gradient of 5–98% acetonitrile at 0.4 ml/min. MassLynx and TargetLynx software (Waters, version 4.2) were used for sample acquisition and data analysis, respectively. Analytes were quantified by integration of peak areas under the curve using the transitions 941.10 to 941.05 m/z for P38PP (substrate) and 939.10 to 939.09 m/z for P38P (product). Areas were normalized for instrumental variation by dividing by the BSA peak area (1209.23 to 1209.2 m/z transition) measured in the same well.

PPM1D1–420 [2] = molecular target: T1, PPM1D1–420; assay: Surface plasmon resonance (SPR); assay type: binding
Protocol: SPR was carried out on the Biacore S200 (GE Healthcare) using Series S sensor chip NTA (GE BR-1005-32). The preparation of the chip surface was conducted according to the manufacturer’s indications. The running buffer contained 50 mM Tris (pH 7.5), 50 mM NaCl, 1 mM MgCl2, 0.5 mM TCEP, 0.005% (v/v) P20 surfactant, and 2% DMSO. PPM1D1–420 and PPM1D∆Flap were run under single-cycle mode due to the slow-off-rate kinetics. The two proteins were immobilized on the chip surface in flow cells 2 and 3 with a signal of ~1500–2000 RU at a rate of 5 μL/min while flow cell 1 was left blank as a reference. The running buffer was injected three times followed by the GSK2830371 analyte in solution. Injections were carried out at a flow rate of 50 μL/min with the analyte in a concentration series of 5-point, 3-fold ending at 400 nM top dose. The association and dissociation phases were monitored for 90 s and 600 s, respectively. Collected data were evaluated using the Biacore S200 Evaluation Software under 1:1 binding mode. PPM1D∆Hinge was run under multi-cycle mode due to its fast-on/fast-off kinetics. The protein was immobilized to give a signal of ~ 3000 RU. GSK2830371 analyte in solution was injected at a flow rate of 90 μL/min in a 10-pt, 2-fold concentration series ending at 15 μM top dose. The association and dissociation phases were monitored for 45 s and 150 s, respectively. Since GSK2830371 had issues with solubility/aggregation at high concentrations that caused artifacts in sensorgrams, only steady-state analysis was performed to extract Kd.

PPM1D1–420 [3] = molecular target: T1, PPM1D1–420; assay: Isothermal titration calorimetry (ITC); assay type: binding; conditions: PPM1D1–420; 25 °C
Protocol: Assessments of the analog of GSK2830371 (analog 1d) binding to wild-type and mutant proteins were conducted using an Auto-iTC200 microcalorimeter (Malvern) (see section on synthesis of analog 1d below). The protein was dialyzed extensively into 25 mM HEPES (pH 7.4), 150 mM NaCl, 10 mM MgCl2 and 1 mM TCEP. The dialyzed protein was used to prepare fresh working solutions of protein (20 µM) and analog 1d (200 µM) in 2% DMSO (v/v) in the same buffer. Titrations were performed at 25 °C and consisted of a single initial injection of 0.4 µL, followed by 19 injections of 2 µL of compound into a sample cell containing wild-type or mutant PPM1D, with an interval of 150 s between successive injections. The reference power and stirring speed were set at […] and 1000 RPM, respectively. Heat of dilution and mixing were obtained from injections of analog 1d into ITC buffer lacking protein and subtracted from the integrated data before curve fitting. Thermodynamic data were analyzed using Origin 7.0 software and fitted by non-linear regression to the model for a single binding site.

Solubility = assay type: physicochemical

**Q.** Which IC50 (PPM1D1–420 [1]) does the source give for NCCCCNC(=O)[C@H](CC1CCCCC1)NC(=O)c1ccc(CNc2cc(Cl)ccn2)s1 [analog 1d] here?
**A.** 22.4 nM

**Q.** And the Kd (PPM1D1–420 [2]; PPM1D1–420, single-cycle kinetics for GSK2830371, read-out: Kd (SPR))?
**A.** 2.7 nM

**Q.** And the koff (PPM1D1–420 [2]; SPR kinetics fit, Sup Fig 3B, read-out: koff)?
**A.** 0.0015 s⁻¹

**Q.** And the kon (PPM1D1–420 [2]; SPR kinetics fit, Sup Fig 3B, read-out: kon)?
**A.** 578000 M⁻¹ s⁻¹

**Q.** And the “Steady state curve response” value (PPM1D1–420 [2]; SPR steady state, [1d] (nM) 4.94E-09)?
**A.** 2.128

**Q.** And the Kd (PPM1D1–420 [3])?
**A.** 10.9 nM and 10 nM

**Q.** And the solubility (Solubility)?
**A.** > 100 µM
